Columns and labels:
human SGLT2 = target: T1, human SGLT2 (Homo sapiens, UniProt P31639); test: SGLT2 assay: Na-dependent 14C-AMG uptake in CHO-K1 cells stably expressing human SGLT2; assay type: cell-based; details: for IC50: average if tested more than once
T1 construct: expressed in transfected cells
T1 sequence (P31639 1-672): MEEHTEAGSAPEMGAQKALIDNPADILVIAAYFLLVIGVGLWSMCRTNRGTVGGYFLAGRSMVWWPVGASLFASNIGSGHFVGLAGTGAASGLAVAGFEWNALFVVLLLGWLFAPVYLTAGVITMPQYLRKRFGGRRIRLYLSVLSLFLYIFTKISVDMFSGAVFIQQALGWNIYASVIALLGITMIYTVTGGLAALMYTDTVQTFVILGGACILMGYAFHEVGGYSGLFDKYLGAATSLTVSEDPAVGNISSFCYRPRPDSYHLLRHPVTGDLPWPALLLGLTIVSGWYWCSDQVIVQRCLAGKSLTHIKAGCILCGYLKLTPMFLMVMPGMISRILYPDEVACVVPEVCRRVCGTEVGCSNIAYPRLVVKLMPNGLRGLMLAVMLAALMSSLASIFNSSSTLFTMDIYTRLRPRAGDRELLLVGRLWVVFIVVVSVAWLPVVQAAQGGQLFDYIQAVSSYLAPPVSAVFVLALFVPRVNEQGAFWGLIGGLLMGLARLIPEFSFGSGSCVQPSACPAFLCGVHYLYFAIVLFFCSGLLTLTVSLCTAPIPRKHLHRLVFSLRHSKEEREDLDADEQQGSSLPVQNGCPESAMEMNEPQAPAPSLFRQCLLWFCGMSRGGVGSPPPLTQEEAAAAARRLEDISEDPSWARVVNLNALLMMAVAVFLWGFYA
In short: (§1)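 Stable CHO-K1 lines were pretreated 24 h with 10 mM Na-butyrate, then compound (0.001–10 μM) for 10 min in Na+ buffer (137 mM NaCl, pH 7.4). Uptake of 14C-AMG (500 μM final, 0.07 μCi/well) over 2 h at 37° C measured by scintillation; %-inhibition or IC50.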

human SGLT1 = target: T2, human SGLT1 (Homo sapiens, UniProt P13866); test: SGLT1 assay: Na-dependent 14C-AMG uptake in CHO-K1 cells stably expressing human SGLT1; assay type: cell-based; details: for IC50: average if tested more than once
T2 construct: expressed in transfected cells
T2 sequence (P13866 1-664): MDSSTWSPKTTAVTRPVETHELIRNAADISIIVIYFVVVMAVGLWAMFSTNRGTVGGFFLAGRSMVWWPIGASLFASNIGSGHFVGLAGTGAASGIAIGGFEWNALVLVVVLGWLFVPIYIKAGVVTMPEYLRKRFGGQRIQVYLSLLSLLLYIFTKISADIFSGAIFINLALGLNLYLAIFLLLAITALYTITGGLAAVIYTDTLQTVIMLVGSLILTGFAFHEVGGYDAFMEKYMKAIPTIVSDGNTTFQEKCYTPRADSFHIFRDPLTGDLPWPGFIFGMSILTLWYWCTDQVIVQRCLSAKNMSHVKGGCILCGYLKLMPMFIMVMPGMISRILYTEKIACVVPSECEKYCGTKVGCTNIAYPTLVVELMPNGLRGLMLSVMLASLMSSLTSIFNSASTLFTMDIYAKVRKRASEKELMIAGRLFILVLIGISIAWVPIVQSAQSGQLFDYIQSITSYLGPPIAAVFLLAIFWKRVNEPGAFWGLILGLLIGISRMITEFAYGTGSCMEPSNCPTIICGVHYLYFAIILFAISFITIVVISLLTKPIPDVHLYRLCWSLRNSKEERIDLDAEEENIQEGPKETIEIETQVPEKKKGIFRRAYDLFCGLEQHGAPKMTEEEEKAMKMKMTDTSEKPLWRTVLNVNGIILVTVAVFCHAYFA
In short: as §1

| Compound | IC50 (human SGLT2) | IC50 (human SGLT1) | further results |
| --- | --- | --- | --- |
| COc1cc(OCC#N)c([C@@H]2O[C@H](C(C)O)[C@@H](F)[C@H](O)[C@H]2O)cc1Cc1cc2ccccc2s1 (single isomer, unassigned) [Compound 71] |  |  | SGLT2 %-inhibition (human SGLT2; @ 0.3 μM): 30.0% @ 0.3 μM; SGLT1 %-inhibition (human SGLT1; @ 0.3 μM): 76.4% @ 0.3 μM |
| CCOC(=O)N1CCc2sc(Cc3cc([C@@H]4O[C@H](CO)[C@@H](F)[C@H](O)[C@H]4O)c(O)cc3C)cc2C1 [Compound 64] | 36 nM | 156 nM |  |
| [2H]C([2H])([2H])Oc1cc(CC)c(Cc2ccc3c(c2)OCCO3)cc1[C@@H]1O[C@H](CO)[C@@H](F)[C@H](O)[C@H]1O [Compound 182] | 11 nM | 138 nM |  |
| COc1cc(OC)c([C@@H]2O[C@H](CO)[C@@H](F)[C@H](O)[C@H]2O)cc1Cc1cc2c(s1)CCN(C#N)C2 [Compound 104] |  |  | SGLT2 %-inhibition (human SGLT2; @ 0.3 μM): 81.2% @ 0.3 μM; SGLT1 %-inhibition (human SGLT1; @ 0.3 μM): 32.5% @ 0.3 μM |
| [2H]C([2H])(c1ccc2c(c1)OCCO2)c1cc([C@@H]2O[C@H](CO)[C@@H](F)[C@H](O)[C@H]2O)c(F)cc1OC [Compound 165] | 16 nM | 56 nM |  |
| Cc1c(Cc2cc3ccccc3s2)cc([C@@H]2O[C@H](CO)[C@@H](F)[C@H](O)[C@H]2O)c2c1CCO2 [Compound 68] | 21 nM | 55 nM |  |
| COc1c(Cc2ccc3c(c2)OCCO3)cc([C@@H]2O[C@H](CO)[C@@H](F)[C@H](O)[C@H]2O)c2c1CCO2 [Compound 101, (2S,3R,4R,5S,6R)-2-[5-(2,3-dihydro-1,4-benzodioxin-6-ylmethyl)-4-methoxy-2,3-dihydrobenzofuran-7-yl]-5-fluoro-6-(hydroxymethyl)tetrahydropyran-3,4-diol] | 7 nM | 96 nM |  |
| OC[C@H]1O[C@@H](c2cc3c(c(Cc4ccc(OCF)cc4)c2)OCC3)[C@H](O)[C@@H](O)[C@@H]1F [Compound 133] | 6 nM | 236 nM |  |
| Cc1cc(N2CCc3sc(Cc4cc([C@@H]5O[C@H](CO)[C@@H](F)[C@H](O)[C@H]5O)ccc4C)cc3C2)c(C)s1 [Compound 138] |  |  | SGLT2 %-inhibition (human SGLT2; @ 0.3 μM): 46.7% @ 0.3 μM; SGLT1 %-inhibition (human SGLT1; @ 0.3 μM): 37.5% @ 0.3 μM |
| COc1cc(OC)c([C@@H]2O[C@H](CO)[C@@H](F)[C@H](O)[C@H]2O)cc1Cc1cc2ccccc2s1 [Compound 12] | 24 nM | 100 nM |  |
| CCOc1ccc(Cc2cc([C@@H]3O[C@H](CO)[C@@H](F)[C@H](O)[C@H]3O)c(O)c3c2OCC3)cc1 [Compound 63] | 4 nM | 122 nM |  |
| Cc1cc(O)c([C@@H]2O[C@H](C(C)(C)O)[C@@H](F)[C@H](O)[C@H]2O)cc1Cc1cc2ccccc2s1 [Compound 39] | 123 nM | 381 nM |  |
| CCc1c(Cc2ccc3c(c2)OCCO3)cc([C@@H]2O[C@H](CO)[C@@H](F)[C@H](O)[C@H]2O)c2c1CCO2 [Compound 180] | 25 nM | 61 nM |  |
| COc1cc(C)c(Cc2cc3c(s2)CCN(C(=O)N2CCCC2)C3)cc1[C@@H]1O[C@H](CO)[C@@H](F)[C@H](O)[C@H]1O [Compound 81] | 11 nM | 223 nM |  |
| Cc1cc(O)c([C@@H]2O[C@H](CO)[C@@H](F)[C@H](O)[C@H]2O)cc1Cc1cc2c(s1)CCN(C(=O)C1CCCC1)C2 [Compound 86, Cyclopentyl(2-(5-((2S,3R,4R,5S,6R)-5-fluoro-3,4-dihydroxy-6-(hydroxymethyl)-tetrahydro-2H-pyran-2-yl)-4-hydroxy-2-methylbenzyl)-6,7-dihydrothieno[3,2-c]pyridin-5(4H)-yl)methanone] | 38 nM | 290 nM |  |
| OCC1COc2c(Cc3ccc4c(c3)OCCO4)cc([C@@H]3O[C@H](CO)[C@@H](F)[C@H](O)[C@H]3O)cc21 (stereo partly drawn) [Compound 75, (2S,3R,4R,5S,6R)-2-(7-((2,3-dihydrobenzo[b][1,4]dioxin-6-yl)methyl)-3-(hydroxymethyl)-2,3-dihydrobenzofuran-5-yl)-5-fluoro-6-(hydroxymethyl)-tetrahydro-2H-pyran-3,4-diol] |  |  | inhibition at 0.3 µM (human SGLT2; @ 0.3 μM): 43.7%; inhibition at 0.3 µM (human SGLT1; @ 0.3 μM): 61.9% |

Reference: patent US11014917B2, “5-fluoro-c-(aryl or heterocyclyl)-glycoside derivatives useful as dual SGLT1 / SGLT2 modulators” (Janssen Pharmaceutica NV, priority 2017, dated 2021)
